Results on four molecules are retold here after US4749700A, “Novel methods of administering antihistamines, antinausea and antiemetic pharmaceutical agents and novel dosage forms containing same” (priority 1987, dated 1988).

The test system of one data set is nasal polyps. To be noted: cited from earlier work.
A short description of a further data set: in vivo. Set-up: species or system Sprague-Dawley male rats. To be noted: rat. On the procedure:
Two Sprague-Dawley male rats each weighing 250 to 300 grams, anesthetized using sodium pentobarbital (50 mg/Kg of body weight), were administered nasally by micropipet a dosage level of 15 mg/Kg of body weight of the following composition:
216 mg metoclopramide.HCL (MCP.HCL)
895.2 mg polyethylene glycol (PEG 400)
The femoral artery was cannulated with heparinized polyethylene tubing (Clay Adams, PE-50) and blood samples were removed at the times indicated in Table 1.
The samples were analyzed by high pressure liquid chromatography (HPLC) as follows:
Column: Silica Column (4.6×250 mm)
Mobile Phase: CH2 Cl2 : MeOH:NH4 OH=90:10:0.5
Plasma (0.3 ml) was placed in a test tube and 0.1 ml of 1N NaOH was added. Four ml of methylene chloride was then added and the mixture shaken for 10 minutes on a reciprocal shaker, centrifuged for 3 minutes in an IEC clinical centrifuge and the upper layer removed by aspiration. A 3.0 ml aliquot of the methylene chloride layer was transferred to a second tube and evaporated to dryness with a streak of nitrogen gas. The resulting residue was then dissolved in 0.1 to 0.5 ml of mobile phase and submitted to HPLC analysis. […]

The nature of data set [1]: 4-way crossover study of metoclopramide hydrochloride (nasal, oral, intramuscular) in volunteer human subjects. Particulars: for Tmax: human, in vivo, Time to Peak. It counts as in vivo. On the procedure: A 4-way crossover study was conducted in eight volunteer human subjects to compare the effects of the nasal administration of 5 and 10 mg of metoclopramide hydrochloride in a gel formulation, 10 mg of the same agent in an oral formulation and 5 mg of the product intramuscularly. The nasal formulation had the following composition: […]
______________________________________
BENZYL ALCOHOL N.F. 1.500 ml
SODIUM CHLORIDE U.S.P. 0.800 grams
ACETIC ACID, N.F. 0.320 grams
SODIUM ACETATE U.S.P. 0.077 grams
SORBITOL SOLUTION U.S.P.
METOCLOPRAMIDE HCL 5.000 grams
WATER PURIFIED U.S.P. q.s.
The oral and intramuscular compositions were commercial formulations available from A.G. Robbins Pharmaceutical Company, Richmond, Va., under the name Reglan.
The study was extended to dosage levels of 20 mg and 40 mg by the intranasal route using the same compositions.

The subject of a further data set is nausea and vomiting. The data set can be described thus: Intranasal metoclopramide for control of nausea and vomiting in cancer patients. Format: in vivo, human. Particulars: intranasal 40 mg every four hours. On the procedure: The patient was a person with Stage IV ovarian cancer.
Because of repeated nausea and vomiting due to bowel obstruction and other factors, intranasal metoclopramide at 40 mg per dose every four hours was employed for control of symptoms.

The next data set has as its system dogs. Particulars: cited from earlier work.
In another data set the test system is cats. To be noted: same or larger amounts into the sinus; cited from earlier work.

Where a name gives a salt, the structure may show the parent alone. Read-outs that look alike come from different tables or passages of the source.

Regarding `CC1(C)O[C@@H]2C[C@H]3[C@@H]4C[C@H](F)C5=CC(=O)C=C[C@]5(C)[C@H]4[C@@H](O)C[C@]3(C)[C@]2(C(=O)CO)O1` [flunisolide], in the data set with nasal polyps, the topical antiinflammatory activity result is given as “excellent topical antiinflammatory”. Moreover, in the data set on nasal polyps (nasal topical), the absorption entry was “not rapidly absorbed” and the systemic activity entry is listed as “minimal systemic activity”.

With `CCN(CC)CCNC(=O)c1cc(Cl)c(N)cc1OC` [metoclopramide hydrochloride], in “in vivo”, the “maintenance of high levels” value was “maintained for a longer period of time” and the “time to achieve maximum levels” value was “extended”. Also, the Tmax (in general, the time at which the peak concentration occurs) in “in vivo” (15 mg/kg) is 0.25 h. This molecule had a Concentration in “in vivo” (15 mg/kg, 0.25 h) of 1.61 ± 0.23 ug/ml plasma. Also, in “in vivo” (15 mg/kg, 0.5 h), the Concentration was 1.55 ± 0.18 ug/ml plasma. Besides, the Concentration in “in vivo” (15 mg/kg, 0.75 h) was found to be 1.30 ± 0.18 ug/ml plasma. In the data set “in vivo” (15 mg/kg, 1 h), this molecule had a Concentration of 1.26 ± 0.3 ug/ml plasma. In addition, the Concentration in the data set “in vivo” (15 mg/kg, 1.25 h) was 1.62 ± 0.17 ug/ml plasma. The same molecule came in with a Concentration in “in vivo” (15 mg/kg, 1.5 h) of 1.63 ± 0.18 ug/ml plasma. In the data set “in vivo” (15 mg/kg, 2 h), the Concentration turned out to be 1.55 ± 0.26 ug/ml plasma. The Concentration in “in vivo” (15 mg/kg, 4 h) is listed as 1.29 ± 0.28 ug/ml plasma. Moreover, in the data set “in vivo” (15 mg/kg, Concentration), the concentration at 0.25 h worked out at 0.85 ± 0.12 µg/mL, the concentration at 0.5 h worked out at 1.37 ± 0.21 µg/mL, the concentration at 0.75 h was 1.51 ± 0.18 µg/mL and the concentration at 1 h is 1.61 ± 0.05 µg/mL. In addition, in the data set “in vivo” (15 mg/kg, Concentration), the concentration at 1.25 h was determined as 1.11 ± 0.34 µg/mL, the concentration at 1.5 h amounted to 1.04 ± 0.35 µg/mL, the concentration at 2 h stood at 1.1 ± 0.38 µg/mL and the concentration at 2.5 h came to 1.55 ± 0.21 µg/mL. In the data set “in vivo” (15 mg/kg, Concentration), this molecule yielded a concentration at 3 h of 1.09 ± 0.36 µg/mL and a concentration at 4 h of 0.94 µg/mL. In addition, the pharmacokinetic profiles result in data set [1] (10 mg nasal, 10 mg P.O. and 5 mg I.M. compared) is on record as “statistically identical”. In data set [1] (during or after the study, 5 and 10 mg nasal, 10 mg P.O., 5 mg I.M.), the local toxicity entry is “No evidence of local toxicity”. Besides, the “local or systemic toxicity” value in data set [1] (extended study, 20 mg and 40 mg intranasal) is “no evidence of either local or systemic toxicity”. In addition, the Tmax in data set [1] was 1.34 h. In data set [1] (im), the time to peak (Tmax) was 1.53 h. In addition, the Tmax in data set [1] (po) was 1.62 h.

Turning to `CCN(CC)CCNC(=O)c1cc(Cl)c(N)cc1OC` [metoclopramide], the benefit from treatment result with nausea and vomiting (five more cancer patients refractory to other antinausea treatments) is recorded as “All patients benefited from the treatment”. For the same molecule, in the data set on nausea and vomiting (one patient, Stage IV ovarian cancer with bowel obstruction), the control of nausea result is “contained their nausea between occasional bouts of vomiting”.

Consider `CN1CCCC1c1cccnc1` (centres unmarked) [nicotine], for which the pressor response result in the data set on dogs (injection of 1 mg) was “immediate and marked pressor response”; with dogs (same or larger amounts into the sinus), “little or no effect”; with cats it was “little or no effect”.
